Tests used:
eggs of Panonychus citri = test: Effect on hatching of eggs of Panonychus citri, leaf disc method; format: in vivo; details: 1 ppm; for Hatching rate (%), Replicate 1 / Hatching rate (%), Replicate 2 / Hatching rate (%), Replicate 3 / Number of hatched larvae 5 days after insecticide delivery, Replicate 1 / Number of hatched larvae 5 days after insecticide delivery, Replicate 2 / Number of hatched larvae 5 days after insecticide delivery, Replicate 3: Panonychus citri eggs; for Hatching rate (%), Replicate 1 / Hatching rate (%), Replicate 2 / Hatching rate (%), Replicate 3: 5 days after delivery; for Number of hatched larvae 5 days after insecticide delivery, Replicate 1 / Number of hatched larvae 5 days after insecticide delivery, Replicate 2 / Number of hatched larvae 5 days after insecticide delivery, Replicate 3: leaf disc
Protocol: • (1) Preparation of leaf discs containing eggs: 20 female adult mites of Tetranychus cinnabarinus were transferred onto leaf discs of Vicia faba with a diameter of 2.0 cm (with wetted filter paper at the bottom), then covered it with a lidded culture dish and cultivated under moisturizing conditions, the adult mites were removed within 36 hours and microscopic examination and counting were performed on leaf discs containing eggs. • (2) Investigation of egg population base: Before pesticide soaking, a microscopic examination was conducted on the egg basic number of each leaf disc, with 2 replicates set for each treatment. • (3) Pesticide soaking treatment: The leaf butterflies loaded with mite eggs were soaked in clear water and sulfite compounds for 10 seconds, respectively, then taken out and cultivated under moisturizing conditions. Each treatment should be repeated for no less than 3 times. • (4) Cultivation and observation: The […] were cultivated under normal conditions. Five days after insecticide delivery, the hatching status of mite eggs was investigated. • Note: The temperature and humidity conditions of the constant temperature and humidity incubator after the treatment should be controlled so as to avoid excessive temperature differences, which may cause generation and dripping of condensate water in the culture dish, resulting in abnormal death of eggs due to soaking in water; it is also necessary to ensure sufficient strong ambient light, without directing irradiating the leaves. • (5) Survey of Results: The experimental materials of each treatment group were regularly hydrated and moisturized, and the hatching of eggs was observed. On the 7th day after insecticide delivery, the number of hatched eggs for each treatment was recorded, and the survey of results was recorded in the original notebook. According to the experimental requirements and characteristics of agents, the survey time can be shortened or extended.
• 1) Surveying and recording the number of hatched eggs for each treatment. • 2) Photographing and recording whether there was any pesticide damage to the leaf discs of Vicia faba. • 3) Recording the developmental status of experimental mite eggs, behavior status of nymph mites, including abnormal phenomena such as delayed or stopped development of mite eggs, difficulty in breaking hull for nymph mites, or painful struggles after hatching, etc. • (6) Calculation method: Based on the survey data, the prevention and control effect of each treatment was calculated according to the following formula, and the calculation results were kept to two decimal places.
This test adopted the method in Test Example 1 of technical section, mainly used leaf disc method to explore the effect on hatching of eggs of Panonychus citri by compounds 1-(S,S), 1-(S,R), 1-(R,R), 1-(R,S), 1′-(S,S), 1′-(S,R), 1′-(R,R), 1′-(R,S), compound 1, compound 1′, S-10, R-10, S-10′, R-10′, compound 10, compound 10′, compound 19-(S,S), 19-(S,R), 19-(R,R), 19-(R,S), 19′-(S,S), 19′-(S,R), 19′-(R,R), 19′-(R,S), compound 19, and compound 19′. The concentration of all compounds was 1 ppm.

[1] = test system: eggs of Spodoptera litura; test: Effect on hatching of eggs of Spodoptera litura, egg piece soaking; format: in vivo; details: 500 ppm; for Hatching rate (%), Replicate 1 / Hatching rate (%), Replicate 2 / Hatching rate (%), Replicate 3 / Number of unhatched larvae 4 days after insecticide delivery, Replicate 1 / Number of unhatched larvae 4 days after insecticide delivery, Replicate 2 / Number of unhatched larvae 4 days after insecticide delivery, Replicate 3: Spodoptera litura eggs; for Hatching rate (%), Replicate 1 / Hatching rate (%), Replicate 2 / Hatching rate (%), Replicate 3: 4 days after delivery; for Number of unhatched larvae 4 days after insecticide delivery, Replicate 1 / Number of unhatched larvae 4 days after insecticide delivery, Replicate 2 / Number of unhatched larvae 4 days after insecticide delivery, Replicate 3: soaked 10 minutes
Protocol: • (1) Preparation of paper containing eggs: the egg mass was cut into small pieces, each containing about 60 eggs, soaked in a preformulated test agent for 10 minutes together with paper for egg raising (concentration of each compound of 500 ppm). After taken out, absorbent paper was used to absorb the excess solution adhered to the paper for egg raising and egg pieces. (2) Cultivation: Each egg piece was separately placed in a glass test tube (5.0 cm in height, 2.5 cm in diameter, the same below), which was sealed with plastic paper punctured with fine holes using insect needles and cultivated in an artificial climate chamber at a temperature of (24±1° C.), a relative humidity of (80±10) %, and a photoperiod of L:D=12:12. When the eggs developed until they were about to hatch, castor leaves with a diameter of about 3 cm were added for feeding the hatching larvae; • (3) Observation: the number of hatched and unhatched eggs per egg piece was checked and recorded, and the hatching rate of eggs was calculated according to the formula. Each treatment was repeated for 3 times. • (4) Survey of results: The experimental materials of each treatment group were regularly hydrated and moisturized, and the hatching of eggs was observed. On the 4th day after insecticide delivery, the number of hatched eggs for each treatment was recorded, and the survey of results was recorded in the original notebook. According to the experimental requirements and characteristics of agents, the survey time can be shortened or extended. • 1) Surveying and recording the number of hatched eggs for each treatment. • 2) Recording the developmental status of experimental eggs of Spodoptera litura, behavior status of nymphs, including abnormal phenomena such as delayed or stopped development of eggs of Spodoptera litura, etc. • (5) Calculation method: Based on the survey data, the prevention and control effect of each treatment was calculated according to the following formula, and the calculation results were kept to two decimal places. [formula] [formula]

Structure (SMILES) | inhibitory effect on the hatching of eggs of Panonychus citri (in words) (eggs of Panonychus citri) | inhibitory activity on the hatching of eggs of Spodoptera litura (in words) [1] | Hatching rate (%), Replicate 1 (eggs of Panonychus citri) | Hatching rate (%), Replicate 2 (eggs of Panonychus citri) | Hatching rate (%), Replicate 3 (eggs of Panonychus citri) | Number of hatched larvae 5 days after insecticide delivery, Replicate 1 (eggs of Panonychus citri) | Number of hatched larvae 5 days after insecticide delivery, Replicate 2 (eggs of Panonychus citri) | Number of hatched larvae 5 days after insecticide delivery, Replicate 3 (eggs of Panonychus citri) | Hatching rate (%), Replicate 1 [1] | Hatching rate (%), Replicate 2 [1] | Hatching rate (%), Replicate 3 [1] | Number of unhatched larvae 4 days after insecticide delivery, Replicate 1 [1] | Number of unhatched larvae 4 days after insecticide delivery, Replicate 2 [1] | Number of unhatched larvae 4 days after insecticide delivery, Replicate 3 [1] | further results
C[C@@H](COS(=O)OCCF)Oc1ccc(Cl)cc1Cl (stereo partly drawn) [1-(S,S)] | good inhibitory effects | good inhibitory activities | – | – | – | – | – | – | – | – | – | – | – | – | Hatching rate (%), Replicate 1 (eggs of Panonychus citri; listed as 1-(S, S)): 0.00%; Hatching rate (%), Replicate 2 (eggs of Panonychus citri; listed as 1-(S, S)): 0.00%; Hatching rate (%), Replicate 3 (eggs of Panonychus citri; listed as 1-(S, S)): 0.00%; Number of hatched larvae 5 days after insecticide delivery, Replicate 1 (eggs of Panonychus citri; listed as 1-(S, S)): 0; Number of hatched larvae 5 days after insecticide delivery, Replicate 2 (eggs of Panonychus citri; listed as 1-(S, S)): 0; Number of hatched larvae 5 days after insecticide delivery, Replicate 3 (eggs of Panonychus citri; listed as 1-(S, S)): 0; Hatching rate (%), Replicate 1 ([1]; listed as 1-(S, S)): 23.73%; Hatching rate (%), Replicate 2 ([1]; listed as 1-(S, S)): 26.15%; Hatching rate (%), Replicate 3 ([1]; listed as 1-(S, S)): 20.69%; Number of unhatched larvae 4 days after insecticide delivery, Replicate 1 ([1]; listed as 1-(S, S)): 45; Number of unhatched larvae 4 days after insecticide delivery, Replicate 2 ([1]; listed as 1-(S, S)): 48; Number of unhatched larvae 4 days after insecticide delivery, Replicate 3 ([1]; listed as 1-(S, S)): 46
CC[C@@H](COc1ccc(Cl)cc1Cl)OS(=O)OCCF (stereo partly drawn) [19-(S,R)] | good inhibitory effects | good inhibitory activities | 0.00% | 0.00% | 0.00% | 0 | 0 | 0 | 15.79% | 15.38% | 15.38% | 48 | 55 | 44 | –
CC(C)(COc1ccc(Cl)cc1Cl)OS(=O)OCCF (stereo not drawn) [Compound S-10] | good inhibitory effects | good inhibitory activities | 0.00% | 0.00% | 0.00% | 0 | 0 | 0 | 21.43% | 22.86% | 24.19% | 44 | 54 | 47 | –
C[C@H](COS(=O)OCCF)Oc1ccc(Cl)cc1Cl (stereo partly drawn) [1-(R,R)] | good inhibitory effects | good inhibitory activities | – | – | – | – | – | – | – | – | – | – | – | – | Hatching rate (%), Replicate 1 (eggs of Panonychus citri; listed as 1-(R, R)): 0.00%; Hatching rate (%), Replicate 2 (eggs of Panonychus citri; listed as 1-(R, R)): 0.00%; Hatching rate (%), Replicate 3 (eggs of Panonychus citri; listed as 1-(R, R)): 0.00%; Number of hatched larvae 5 days after insecticide delivery, Replicate 1 (eggs of Panonychus citri; listed as 1-(R, R)): 0; Number of hatched larvae 5 days after insecticide delivery, Replicate 2 (eggs of Panonychus citri; listed as 1-(R, R)): 0; Number of hatched larvae 5 days after insecticide delivery, Replicate 3 (eggs of Panonychus citri; listed as 1-(R, R)): 0; Hatching rate (%), Replicate 1 ([1]; listed as 1-(R, R)): 22.39%; Hatching rate (%), Replicate 2 ([1]; listed as 1-(R, R)): 21.05%; Hatching rate (%), Replicate 3 ([1]; listed as 1-(R, R)): 23.73%; Number of unhatched larvae 4 days after insecticide delivery, Replicate 1 ([1]; listed as 1-(R, R)): 47; Number of unhatched larvae 4 days after insecticide delivery, Replicate 2 ([1]; listed as 1-(R, R)): 45; Number of unhatched larvae 4 days after insecticide delivery, Replicate 3 ([1]; listed as 1-(R, R)): 45
CCC(COc1ccc(Cl)cc1Cl)OS(=O)OCCF [19-(R,R)] | – | – | – | – | – | – | – | – | – | – | – | – | – | – | Hatching rate (%), Replicate 1 (eggs of Panonychus citri; listed as 19-(R, R)): 7.52%; Hatching rate (%), Replicate 2 (eggs of Panonychus citri; listed as 19-(R, R)): 8.41%; Hatching rate (%), Replicate 3 (eggs of Panonychus citri; listed as 19-(R, R)): 8.33%; Number of hatched larvae 5 days after insecticide delivery, Replicate 1 (eggs of Panonychus citri; listed as 19-(R, R)): 10; Number of hatched larvae 5 days after insecticide delivery, Replicate 2 (eggs of Panonychus citri; listed as 19-(R, R)): 9; Number of hatched larvae 5 days after insecticide delivery, Replicate 3 (eggs of Panonychus citri; listed as 19-(R, R)): 7; Hatching rate (%), Replicate 1 ([1]; listed as 19-(R, R)): 50.85%; Hatching rate (%), Replicate 2 ([1]; listed as 19-(R, R)): 51.61%; Hatching rate (%), Replicate 3 ([1]; listed as 19-(R, R)): 50.79%; Number of unhatched larvae 4 days after insecticide delivery, Replicate 1 ([1]; listed as 19-(R, R)): 29; Number of unhatched larvae 4 days after insecticide delivery, Replicate 2 ([1]; listed as 19-(R, R)): 30; Number of unhatched larvae 4 days after insecticide delivery, Replicate 3 ([1]; listed as 19-(R, R)): 31
CC(C)(COc1ccc(Cl)cc1Cl)OS(=O)OCCF (stereo not drawn) [Compound 10] | good inhibitory effects | – | 1.01% | 0.00% | 0.00% | 1 | 0 | 0 | 41.27% | 40.98% | 42.11% | 37 | 36 | 33 | –

Source: patent US20260184675A1, “CHIRAL ISOMERIC SULFITE COMPOUND AND APPLICATION THEREOF” (Chengdu Hanova BioSciences Co., Ltd, priority 2024, published 2026)
